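How tested: cells in 96-well plates exposed to compound for 48 hours at five concentrations. Definition used: TGI = concentration required for complete inhibition of growth.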
What was measured:
Assay in all cases: growth of human tumour cells (NCI), 48 h
U251 CNS = tested on: U251 CNS
MDA-MB-231 breast = tested on: MDA-MB-231 breast
OVCAR-8 ovarian = tested on: OVCAR-8 ovarian
HCC-2998 colon = tested on: HCC-2998 colon
MCF7 breast = tested on: MCF7 breast
HS 578T breast = tested on: HS 578T breast
RXF 393 renal = tested on: RXF 393 renal
MOLT-4 leukemia = tested on: MOLT-4 leukemia
UO-31 renal = tested on: UO-31 renal
MDA-N = tested on: MDA-N
SR leukemia = tested on: SR leukemia
HCT-116 colon = tested on: HCT-116 colon
SF-295 CNS = tested on: SF-295 CNS
SK-OV-3 ovarian = tested on: SK-OV-3 ovarian
ACHN renal = tested on: ACHN renal
PC-3 prostate = tested on: PC-3 prostate
CCRF-CEM leukemia = tested on: CCRF-CEM leukemia
NCI-H23 lung = tested on: NCI-H23 lung
NCI-H460 lung = tested on: NCI-H460 lung
SNB-19 CNS = tested on: SNB-19 CNS
RPMI-8226 leukemia = tested on: RPMI-8226 leukemia
IGROV1 ovarian = tested on: IGROV1 ovarian
K-562 leukemia = tested on: K-562 leukemia
DU-145 prostate = tested on: DU-145 prostate
SK-MEL-28 melanoma = tested on: SK-MEL-28 melanoma
SNB-75 CNS = tested on: SNB-75 CNS
M14 melanoma = tested on: M14 melanoma
A549 NSCLC = tested on: A549 NSCLC
LOX IMVI melanoma = tested on: LOX IMVI melanoma
MDA-MB-435 = tested on: MDA-MB-435
HL-60(TB) leukemia = tested on: HL-60(TB) leukemia
NCI-H522 lung = tested on: NCI-H522 lung
HOP-62 NSCLC = tested on: HOP-62 NSCLC
A498 renal = tested on: A498 renal
CAKI-1 renal = tested on: CAKI-1 renal
BT-549 breast = tested on: BT-549 breast
SN12C renal = tested on: SN12C renal
COLO 205 colon = tested on: COLO 205 colon
OVCAR-4 ovarian = tested on: OVCAR-4 ovarian
HOP-92 NSCLC = tested on: HOP-92 NSCLC
SF-539 CNS = tested on: SF-539 CNS
UACC-257 melanoma = tested on: UACC-257 melanoma
SK-MEL-5 melanoma = tested on: SK-MEL-5 melanoma
HT29 colon = tested on: HT29 colon
KM12 colon = tested on: KM12 colon
NCI/ADR-RES ovarian = tested on: NCI/ADR-RES ovarian
786-0 renal = tested on: 786-0 renal
UACC-62 melanoma = tested on: UACC-62 melanoma
NCI-H226 lung = tested on: NCI-H226 lung
SW-620 colon = tested on: SW-620 colon
TK-10 renal = tested on: TK-10 renal
EKVX NSCLC = tested on: EKVX NSCLC
OVCAR-3 ovarian = tested on: OVCAR-3 ovarian
OVCAR-5 ovarian = tested on: OVCAR-5 ovarian
SF-268 CNS = tested on: SF-268 CNS
MALME-3M melanoma = tested on: MALME-3M melanoma
T-47D breast = tested on: T-47D breast
SK-MEL-2 melanoma = tested on: SK-MEL-2 melanoma
HCT-15 colon = tested on: HCT-15 colon

Measured: TGI

NC(N)=N/N=C/c1c(Cl)nc2sccn12
84.8 µM: HS 578T breast
53.1 µM: RPMI-8226 leukemia
31.6 µM: HT29 colon
49 µM: UACC-257 melanoma
90.9 µM: OVCAR-3 ovarian
46.4 µM: OVCAR-4 ovarian
87.4 µM: K-562 leukemia
32.7 µM: 786-0 renal
39.6 µM: LOX IMVI melanoma
29.2 µM: SK-MEL-5 melanoma
37.8 µM: SF-539 CNS
41.1 µM: SW-620 colon
33.5 µM: COLO 205 colon
44.1 µM: SF-295 CNS
34 µM: HCC-2998 colon
84 µM: NCI-H522 lung
93.8 µM: A549 NSCLC
> 100 µM: U251 CNS | MDA-MB-231 breast | OVCAR-8 ovarian | MOLT-4 leukemia | UO-31 renal | MDA-N | SK-OV-3 ovarian | PC-3 prostate | NCI-H23 lung | SNB-19 CNS | IGROV1 ovarian | DU-145 prostate | SK-MEL-28 melanoma | SNB-75 CNS | MDA-MB-435 | A498 renal | CAKI-1 renal | BT-549 breast | SN12C renal | NCI/ADR-RES ovarian | UACC-62 melanoma | TK-10 renal | EKVX NSCLC | SF-268 CNS | T-47D breast
37.4 µM: KM12 colon
33.4 µM: ACHN renal
31.7 µM: HCT-116 colon
80.9 µM: OVCAR-5 ovarian
50.3 µM: MALME-3M melanoma
73 µM: CCRF-CEM leukemia
65.1 µM: RXF 393 renal
42.1 µM: HL-60(TB) leukemia
73.6 µM: MCF7 breast
66.9 µM: NCI-H226 lung
34.5 µM: M14 melanoma
54 µM: SR leukemia
70.6 µM: HOP-92 NSCLC
66.8 µM: HOP-62 NSCLC
30.3 µM: NCI-H460 lung

CCOC(=O)N/N=C(/N)Cc1ccccc1
> 100 µM: SK-MEL-2 melanoma | MDA-MB-231 breast | OVCAR-8 ovarian | HCC-2998 colon | MCF7 breast | HS 578T breast | RXF 393 renal | MOLT-4 leukemia | UO-31 renal | MDA-N | SR leukemia | HCT-15 colon | HCT-116 colon | SF-295 CNS | SK-OV-3 ovarian | ACHN renal | PC-3 prostate | CCRF-CEM leukemia | NCI-H460 lung | SNB-19 CNS | IGROV1 ovarian | K-562 leukemia | DU-145 prostate | SK-MEL-28 melanoma | SNB-75 CNS | M14 melanoma | A549 NSCLC | LOX IMVI melanoma | MDA-MB-435 | HL-60(TB) leukemia | NCI-H522 lung | HOP-62 NSCLC | A498 renal | CAKI-1 renal | BT-549 breast | SN12C renal | COLO 205 colon | HOP-92 NSCLC | SF-539 CNS | UACC-257 melanoma | SK-MEL-5 melanoma | KM12 colon | NCI/ADR-RES ovarian | 786-0 renal | UACC-62 melanoma | SW-620 colon | TK-10 renal | EKVX NSCLC | OVCAR-3 ovarian | OVCAR-5 ovarian | SF-268 CNS | MALME-3M melanoma | T-47D breast

From PubChem BioAssay (NCI)
